Here are results for 23 molecules from patent publication US9133191B2, “Substituted triazine derivatives and use thereof as stimulators of soluble guanylate cyclase” (Bayer Intellectual Property GmbH, priority 2012, dated 2015).

For test [1], the system named is recombinant guanylate cyclase reporter cell line. Nature of the test: Effect on a recombinant guanylate cyclase reporter cell line. Type of test: cell-based. Particulars: read-out: MEC (minimum effective concentration). Here is the method: B-2. Effect on a Recombinant Guanylate Cyclase Reporter Cell Line
The cellular effect of the compounds according to the invention is determined using a recombinant guanylate cyclase reporter cell line, as described in F. Wunder et al., Anal. Biochem. 339, 104-112 (2005).

Another test relates to aorta rings. The test can be described thus: Vasorelaxant effect in vitro (phenylephrine-contracted rabbit aorta rings). Also noted: species or system Rabbits. Particulars: Oryctolagus cuniculus, phenylephrine contraction, concentration needed to reduce the control value by 50%. Here is the method: B-1. Vasorelaxant Effect In Vitro
Rabbits are stunned by a blow to the neck and exsanguinated. The aorta is removed, freed from adhering tissue and divided into rings of a width of 1.5 mm. The rings are placed individually under an initial tension in 5 ml organ baths with Krebs-Henseleit solution which is at 37° C., is gassed with carbogen and has the following composition (in each case mM): sodium chloride: 119; potassium chloride: 4.8; calcium chloride dihydrate: 1; magnesium sulphate heptahydrate: 1.4; potassium dihydrogenphosphate: 1.2; sodium bicarbonate: 25; glucose: 10. The contractile force is determined with Statham UC2 cells, amplified and digitalized using A/D transducers (DAS-1802 HC, Keithley Instruments Munich), and recorded in parallel on linear recorders. To produce a contraction, phenylephrine is added to the bath cumulatively in increasing concentration. After several control cycles, the substance to be investigated is added in each further run in increasing dosage in each case, and the height of the contraction achieved is compared with the height of the contraction reached in the last preceding run. This is used to calculate the concentration needed to reduce the magnitude of the control value by 50% (IC50 value). The standard administration volume is 5 μl; the DMSO content in the bath solution corresponds to 0.1%.

Structures are written as SMILES.

One may read the IC50 as the concentration that inhibits the measured activity by half.

Take `Cc1noc(C)c1-c1nnc(-c2nn(Cc3ccccc3F)c3ncccc23)nc1N` [Example 3, 6-(3,5-Dimethyl-1,2-oxazol-4-yl)-3-[1-(2-fluorobenzyl)-1H-pyrazolo[3,4-b]pyridin-3-yl]-1,2,4-triazine-5-amine]: the minimal effective concentration in test [1] is 0.3 µM. As for `Nc1nnc(-c2nn(Cc3ccccc3F)c3ncccc23)nc1N` [Example 10, 3-[1-(2-Fluorobenzyl)-1H-pyrazolo[3,4-b]pyridin-3-yl]-1,2,4-triazine-5,6-diamine], the minimal effective concentration in test [1] stood at 0.1 µM. In turn, `CC(F)c1nnc(-c2nn(Cc3ccccc3F)c3ncccc23)nc1N` (stereo not shown) [Example 23, 3-[1-(2-Fluorobenzyl)-1H-pyrazolo[3,4-b]pyridin-3-yl]-6-(1-fluoroethyl)-1,2,4-triazine-5-amine] had an IC50 in the test with aorta rings of 23 nM. Further, the minimal effective concentration in test [1] came to 0.1 µM. On the same counts, the results for `Nc1nc(-c2nn(Cc3ccccc3F)c3ncccc23)nnc1C1CCCC1` [Example 16, 6-Cyclopentyl-3-[1-(2-fluorobenzyl)-1H-pyrazolo[3,4-b]pyridin-3-yl]-1,2,4-triazine-5-amine] are 25 nM and 0.03 µM. For the molecule `COc1ncccc1-c1nnc(-c2nn(Cc3ccccc3F)c3ncccc23)nc1N` [Example 8, 3-[1-(2-Fluorobenzyl)-1H-pyrazolo[3,4-b]pyridin-3-yl]-6-(2-methoxypyridin-3-yl)-1,2,4-triazine-5-amine], the minimal effective concentration in test [1] stood at 0.1 µM.

The molecule `Oc1nc(-c2nn(Cc3ccccc3F)c3ncccc23)nnc1C(F)(F)F` [Example 13, 3-[1-(2-Fluorobenzyl)-1H-pyrazolo[3,4-b]pyridin-3-yl]-6-(trifluoromethyl)-1,2,4-triazin-5-ol] registered an IC50 in the test on aorta rings of 2630 nM. In addition, the minimal effective concentration in test [1] came out at 3 µM. Turning to `Cn1cc(-c2nnc(-c3nn(Cc4ccccc4F)c4ncccc34)nc2N)cn1` [Example 6, 3-[1-(2-Fluorobenzyl)-1H-pyrazolo[3,4-b]pyridin-3-yl]-6-(1-methyl-1H-pyrazol-4-yl)-1,2,4-triazine-5-amine], the minimal effective concentration in test [1] came out at 0.1 µM. In the case of `Nc1nc(-c2nn(Cc3ccccc3F)c3ncccc23)nnc1-c1cncc(F)c1` [Example 1, 3-[1-(2-Fluorobenzyl)-1H-pyrazolo[3,4-b]pyridin-3-yl]-6-(5-fluoropyridin-3-yl)-1,2,4-triazine-5-amine], the minimal effective concentration in test [1] was 0.1 µM. Still for that read-out and setting: the figure for `Nc1nc(-c2nn(Cc3ccccc3F)c3ncccc23)nnc1-c1cccnc1` [Example 7, 3-[1-(2-Fluorobenzyl)-1H-pyrazolo[3,4-b]pyridin-3-yl]-6-(pyridin-3-yl)-1,2,4-triazine-5-amine] is 0.1 µM; for `CCc1nnc(-c2nn(Cc3ccccc3F)c3ncccc23)nc1O` [Example 19, 6-Ethyl-3-[1-(2-fluorobenzyl)-1H-pyrazolo[3,4-b]pyridin-3-yl]-1,2,4-triazin-5-ol] it is 1 µM. Molecule `CC(C)c1nnc(-c2nn(Cc3ccccc3F)c3ncccc23)nc1O` [Example 21, 3-[1-(2-Fluorobenzyl)-1H-pyrazolo[3,4-b]pyridin-3-yl]-6-isopropyl-1,2,4-triazin-5-ol] displayed a half-inhibitory concentration (IC50) in the test with aorta rings of 916 nM. For the same molecule, the minimal effective concentration in test [1] worked out at 0.3 µM. Taken in the same sequence, the figures for `CS(=O)(=O)Nc1nnc(-c2nn(Cc3ccccc3F)c3ncccc23)nc1N` [Example 11, N-{5-Amino-3-[1-(2-fluorobenzyl)-1H-pyrazolo[3,4-b]pyridin-3-yl]-1,2,4-triazin-6-yl}methanesulphonamide] were 2960 nM and 1 µM. Turning to `COc1ccc(-c2nnc(-c3nn(Cc4ccccc4F)c4ncccc34)nc2N)cn1` [Example 4, 3-[1-(2-Fluorobenzyl)-1H-pyrazolo[3,4-b]pyridin-3-yl]-6-(6-methoxypyridin-3-yl)-1,2,4-triazine-5-amine], in test [1], the minimal effective concentration was 0.03 µM.

In the case of `Cc1ncccc1-c1nnc(-c2nn(Cc3ccccc3F)c3ncccc23)nc1N` [Example 2, 3-[1-(2-Fluorobenzyl)-1H-pyrazolo[3,4-b]pyridin-3-yl]-6-(2-methylpyridin-3-yl)-1,2,4-triazine-5-amine], in test [1], the minimal effective concentration was 0.1 µM. Turning to `Oc1nc(-c2nn(Cc3ccccc3F)c3ncccc23)nnc1C1CCCC1` [Example 15, 6-Cyclopentyl-3-[1-(2-fluorobenzyl)-1H-pyrazolo[3,4-b]pyridin-3-yl]-1,2,4-triazin-5-ol], 1090 nM corresponded to half-maximal inhibition in the test with aorta rings (IC50). In addition, the minimal effective concentration in test [1] is 1 µM.

Turning to `Cc1cc(-c2nnc(-c3nn(Cc4ccccc4F)c4ncccc34)nc2N)ccn1` [Example 9, 3-[1-(2-Fluorobenzyl)-1H-pyrazolo[3,4-b]pyridin-3-yl]-6-(2-methylpyridin-4-yl)-1,2,4-triazine-5-amine], the minimal effective concentration in test [1] was determined as 0.1 µM. `COC(=O)Nc1nnc(-c2nn(Cc3ccccc3F)c3ncccc23)nc1N` [Example 12, Methyl {5-amino-3-[1-(2-fluorobenzyl)-1H-pyrazolo[3,4-b]pyridin-3-yl]-1,2,4-triazin-6-yl}carbamate] came in with an IC50 with aorta rings of 112 nM. In test [1], the minimal effective concentration was found to be 0.3 µM. `Nc1nc(-c2nn(Cc3ccccc3F)c3ncccc23)nnc1C(F)(F)F` [Example 14, 3-[1-(2-Fluorobenzyl)-1H-pyrazolo[3,4-b]pyridin-3-yl]-6-(trifluoromethyl)-1,2,4-triazine-5-amine] gave an IC50 in the test on aorta rings of 52 nM. In addition, the minimal effective concentration in test [1] amounted to 0.03 µM. Regarding `CCCc1nnc(-c2nn(Cc3ccccc3F)c3ncccc23)nc1O` [Example 17, 3-[1-(2-Fluorobenzyl)-1H-pyrazolo[3,4-b]pyridin-3-yl]-6-propyl-1,2,4-triazin-5-ol], the minimal effective concentration in test [1] stood at 1 µM. Turning to `CCCc1nnc(-c2nn(Cc3ccccc3F)c3ncccc23)nc1N` [Example 18, 3-[1-(2-Fluorobenzyl)-1H-pyrazolo[3,4-b]pyridin-3-yl]-6-propyl-1,2,4-triazine-5-amine], in the test on aorta rings, the IC50 was found to be 30 nM. For the same molecule, the minimal effective concentration in test [1] was 0.1 µM.

For `CCc1nnc(-c2nn(Cc3ccccc3F)c3ncccc23)nc1N` [Example 20, 6-Ethyl-3-[1-(2-fluorobenzyl)-1H-pyrazolo[3,4-b]pyridin-3-yl]-1,2,4-triazine-5-amine], the IC50 in the test with aorta rings amounted to 30 nM. In test [1], the minimal effective concentration was 0.1 µM. On the same counts, the results for `CC(C)c1nnc(-c2nn(Cc3ccccc3F)c3ncccc23)nc1N` [Example 22, 3-[1-(2-Fluorobenzyl)-1H-pyrazolo[3,4-b]pyridin-3-yl]-6-isopropyl-1,2,4-triazine-5-amine] are 27 nM and 0.1 µM. For the molecule `Nc1nc(-c2nn(Cc3ccccc3F)c3ncccc23)nnc1-c1ccncc1` [Example 5, 3-[1-(2-Fluorobenzyl)-1H-pyrazolo[3,4-b]pyridin-3-yl]-6-(pyridin-4-yl)-1,2,4-triazine-5-amine], the minimal effective concentration in test [1] came to 0.1 µM.
